Reference: PubChem BioAssay AID330 (DTP/NCI, 2004)
Values joined by “and” are separate entries in the source; they are usually repeats but may differ in a detail not shown here. Equal values may be shown once. Toxic doses and inconclusive results are not listed.

Tested on: P388 leukemia ip, CD2F1 mice, survival T/C
Assay: NCI In Vivo Anticancer Drug Screen. Data for tumor model P388 Leukemia (intraperitoneal) in CD2F1 (CDF1) mice
Details: endpoint: median survival time, higher = longer survival
In short: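 Mice carrying the transplanted tumor received test compound or vehicle. Survival was recorded in each group, and the value is the treated-group measurement divided by that of the vehicle-treated control group.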

[1] = dose: 25.0 mg/kg/injection, schedule: Q01DX009 (ip), vehicle: saline with Tween-80
[2] = dose: 50.0 mg/kg/injection, schedule: Q01DX005 (ip), vehicle: Klucel (hydroxypropylcellulose) (HPC)
[3] = dose: 100.0 mg/kg/injection, schedule: Q01DX005 (ip), vehicle: Klucel (hydroxypropylcellulose) (HPC)
[4] = dose: 200.0 mg/kg/injection, schedule: Q01DX005 (ip), vehicle: Klucel (hydroxypropylcellulose) (HPC)
[5] = dose: 50.0 mg/kg/injection, schedule: Q01DX005 (ip), vehicle: saline with Tween-80
[6] = dose: 100.0 mg/kg/injection, schedule: Q01DX005 (ip), vehicle: saline with Tween-80
[7] = dose: 200.0 mg/kg/injection, schedule: Q01DX005 (ip), vehicle: saline with Tween-80
[8] = dose: 120.0 mg/kg/injection, schedule: Q01DX005 (ip), vehicle: Klucel (hydroxypropylcellulose) (HPC)
[9] = dose: 60.0 mg/kg/injection, schedule: Q01DX005 (ip), vehicle: saline with Tween-80
[10] = dose: 120.0 mg/kg/injection, schedule: Q01DX005 (ip), vehicle: saline with Tween-80
[11] = dose: 240.0 mg/kg/injection, schedule: Q01DX005 (ip), vehicle: saline with Tween-80
[12] = dose: 25.0 mg/kg/injection, schedule: Q01DX009 (ip), vehicle: water
[13] = dose: 50.0 mg/kg/injection, schedule: Q01DX009 (ip), vehicle: water
[14] = dose: 100.0 mg/kg/injection, schedule: Q01DX009 (ip), vehicle: water

In the case of `FC(F)(F)c1ccc2c3c(c4c(c2n1)OCN(Cc1ccc(Cl)cc1Cl)C4)CN(Cc1ccc(Cl)cc1Cl)CO3`, the T/C (dose: 100.0 mg/kg/injection, schedule: Q01DX001 (ip), vehicle: other) is reported as 93 % of control, the T/C (dose: 200.0 mg/kg/injection, schedule: Q01DX001 (ip), vehicle: other) is reported as 93 % of control and the T/C (dose: 400.0 mg/kg/injection, schedule: Q01DX001 (ip), vehicle: other) is reported as 100 % of control.

With `CCNC(=O)Nc1nc2ccccc2[nH]1` the T/C (dose: 12.5 mg/kg/injection, schedule: Q01DX009 (ip), vehicle: saline with Tween-80) was 103 % of control, the T/C [1] was 100 % of control and the T/C (dose: 50.0 mg/kg/injection, schedule: Q01DX009 (ip), vehicle: saline with Tween-80) was 107 % of control.

With `O=C(NC[N+]12CCO[B-]1(c1cccc(Cl)c1)OCC2)c1ccccc1O` (stereo not given) the T/C [2] was 104 % of control, the T/C [3] was 104 % of control and the T/C [4] was 96 % of control.

With `CCn1c(=O)c2c(N(CCO)CCO)snc2n(CC)c1=O` the T/C (dose: 100.0 mg/kg/injection, schedule: Q04DX002 (ip), vehicle: suspension in saline) was 104 % of control, the T/C (dose: 200.0 mg/kg/injection, schedule: Q04DX002 (ip), vehicle: suspension in saline) was 101 % of control and the T/C (dose: 400.0 mg/kg/injection, schedule: Q04DX002 (ip), vehicle: suspension in saline) was 102 % of control.

With `COc1ccc(N=C2C(=Nc3ccc(OC)cc3)N(S(=O)(=O)c3ccc(C)cc3)C(=S)N2c2ccccc2)cc1` the T/C (dose: 50.0 mg/kg/injection, schedule: Q01DX005 (ip), vehicle: Klucel + Tween-80) was 100 % of control and the T/C (dose: 100.0 mg/kg/injection, schedule: Q01DX005 (ip), vehicle: Klucel + Tween-80) was 98 % of control.

For `CN(CCO)CNC(=O)C1=C(O)C2(O)C(=O)C3=C(O)c4c(O)cccc4C(C)(O)C3CC2C(N(C)C)C1=O` (stereo not given), the T/C [2] was 105 % of control, the T/C [3] was 103 % of control and the T/C [4] was 100 % of control.

For `CC(=O)c1c(O)c2ccc(Cl)cc2[nH]c1=O`, the T/C [5] was 99 % of control, the T/C [6] was 96 % of control and the T/C [7] was 99 % of control.

For `C=C1CC/C=C(/C)C(=O)C(OC(C)=O)C2C1CC2(C)C` (stereo not given), the T/C (dose: 1.75 mg/kg/injection, schedule: Q01DX009 (ip), vehicle: saline + Tween-80 + alcohol) was 105 % of control, the T/C (dose: 1.75 mg/kg/injection, schedule: Q01DX009 (ip), vehicle: saline + alcohol) was 105 % of control and 111 % of control and the T/C (dose: 3.5 mg/kg/injection, schedule: Q01DX009 (ip), vehicle: saline + Tween-80 + alcohol) was 102 % of control. The T/C (dose: 3.5 mg/kg/injection, schedule: Q01DX009 (ip), vehicle: saline + alcohol) was 102 % of control and 103 % of control and 114 % of control, the T/C (dose: 7.0 mg/kg/injection, schedule: Q01DX009 (ip), vehicle: saline + Tween-80 + alcohol) was 111 % of control and the T/C (dose: 7.0 mg/kg/injection, schedule: Q01DX009 (ip), vehicle: saline + alcohol) was 101 % of control and 105 % of control and 114 % of control. For the same molecule, the T/C (dose: 14.0 mg/kg/injection, schedule: Q01DX009 (ip), vehicle: saline + Tween-80 + alcohol) was 116 % of control, the T/C (dose: 14.0 mg/kg/injection, schedule: Q01DX009 (ip), vehicle: saline + alcohol) was 111 % of control and 113 % of control and 114 % of control and the T/C (dose: 28.0 mg/kg/injection, schedule: Q01DX009 (ip), vehicle: saline + Tween-80 + alcohol) was 120 % of control. The T/C (dose: 28.0 mg/kg/injection, schedule: Q01DX009 (ip), vehicle: saline + alcohol) was 111 % of control and 115 % of control and 121 % of control and the T/C (dose: 56.0 mg/kg/injection, schedule: Q01DX009 (ip), vehicle: saline + Tween-80 + alcohol) was 116 % of control.

With `Nc1ccn(C2OC(CCl)C(O)C2O)c(=O)n1` (stereo not given) the T/C (dose: 6.25 mg/kg/injection, schedule: Q01DX009 (ip), vehicle: Klucel (hydroxypropylcellulose) (HPC)) was 101 % of control, the T/C (dose: 12.5 mg/kg/injection, schedule: Q01DX009 (ip), vehicle: Klucel (hydroxypropylcellulose) (HPC)) was 106 % of control and the T/C (dose: 100.0 mg/kg/injection, schedule: Q01DX009 (ip), vehicle: Klucel (hydroxypropylcellulose) (HPC)) was 172 % of control. For the same molecule, the T/C (dose: 100.0 mg/kg/injection, schedule: Q01DX009 (ip), vehicle: saline) was 154 % of control, the T/C (dose: 200.0 mg/kg/injection, schedule: Q01DX009 (ip), vehicle: Klucel (hydroxypropylcellulose) (HPC)) was 186 % of control and the T/C (dose: 200.0 mg/kg/injection, schedule: Q01DX009 (ip), vehicle: saline) was 164 % of control. The T/C (dose: 400.0 mg/kg/injection, schedule: Q01DX009 (ip), vehicle: saline) was 177 % of control.

In the case of `C#CCOc1ccccc1/C(Cl)=N/Nc1ccc([N+](=O)[O-])cc1[N+](=O)[O-]`, the T/C (dose: 6.25 mg/kg/injection, schedule: Q01DX009 (ip), vehicle: saline with Tween-80) is reported as 97 % of control and the T/C [1] is reported as 90 % of control.

In the case of `N#Cc1nnc2cc(-c3ccccc3)nn2c1-c1ccco1`, the T/C (dose: 60.0 mg/kg/injection, schedule: Q01DX005 (ip), vehicle: Klucel (hydroxypropylcellulose) (HPC)) is reported as 98 % of control and the T/C [8] is reported as 90 % of control.

For `NSc1ccc([N+](=O)[O-])cc1`, the T/C (dose: 25.0 mg/kg/injection, schedule: Q01DX001 (ip), vehicle: other) was 109 % of control and the T/C (dose: 50.0 mg/kg/injection, schedule: Q01DX001 (ip), vehicle: other) was 100 % of control.

`CCCCCC1SCC(=O)N1c1nncs1` (stereo not given) was tested, and the T/C [9] was 106 % of control, the T/C [10] was 103 % of control and the T/C [11] was 113 % of control.

In the case of `S=c1n(-c2ccc(Cl)cc2)c2nc3ccccc3nc(/c2=N\Nc2ccccc2)n1-c1ccc(Br)cc1`, the T/C [5] is reported as 92 % of control, the T/C [6] is reported as 105 % of control and the T/C [7] is reported as 105 % of control.

`Nc1nnc(Cc2ccc(Cl)cc2)o1` was tested, and the T/C [9] was 95 % of control, the T/C [10] was 105 % of control and the T/C [11] was 105 % of control.

`N/C(=N\OC(=O)Nc1ccc(CSc2ccc(Cl)cc2)o1)c1ccccn1` was tested, and the T/C (dose: 12.5 mg/kg/injection, schedule: Q01DX005 (ip), vehicle: Klucel (hydroxypropylcellulose) (HPC)) was 106 % of control and 109 % of control, the T/C (dose: 25.0 mg/kg/injection, schedule: Q01DX005 (ip), vehicle: Klucel (hydroxypropylcellulose) (HPC)) was 107 % of control and 110 % of control and the T/C [2] was 110 % of control and 114 % of control and 120 % of control. The T/C [3] was 109 % of control and 111 % of control.

For `COc1cc(C(CC#N)CC#N)cc(OC)c1OC`, the T/C [5] was 96 % of control, the T/C [6] was 99 % of control and the T/C [7] was 97 % of control.

With `CCCCCCCCCC[N+](C)(C)CC(O)CO` (stereo not given) the T/C (dose: 12.5 mg/kg/injection, schedule: Q01DX009 (ip), vehicle: saline) was 94 % of control, the T/C (dose: 25.0 mg/kg/injection, schedule: Q01DX009 (ip), vehicle: saline) was 105 % of control and the T/C (dose: 50.0 mg/kg/injection, schedule: Q01DX009 (ip), vehicle: saline) was 111 % of control.

In the case of `NC(=O)C1ONC(=O)C1N` (stereo not given), the T/C [12] is reported as 106 % of control, the T/C [13] is reported as 103 % of control and the T/C (dose: 100.0 mg/kg/injection, schedule: Q01DX001 (ip), vehicle: water) is reported as 98 % of control. For the same molecule, the T/C [14] was 104 % of control, the T/C (dose: 100.0 mg/kg/injection, schedule: Q04DX003 (ip), vehicle: water) was 100 % of control and the T/C (dose: 200.0 mg/kg/injection, schedule: Q01DX001 (ip), vehicle: water) was 100 % of control. For the same molecule, the T/C (dose: 200.0 mg/kg/injection, schedule: Q01DX009 (ip), vehicle: water) was 120 % of control, the T/C (dose: 200.0 mg/kg/injection, schedule: Q04DX003 (ip), vehicle: water) was 101 % of control and the T/C (dose: 400.0 mg/kg/injection, schedule: Q01DX001 (ip), vehicle: water) was 92 % of control. The T/C (dose: 400.0 mg/kg/injection, schedule: Q04DX003 (ip), vehicle: water) was 101 % of control and the T/C (dose: 600.0 mg/kg/injection, schedule: Q01DX001 (ip), vehicle: water) was 96 % of control.

In the case of `NCC1OC(n2cnc3c(N)ncnc32)C(O)C1O` (stereo not given), the T/C (dose: 6.25 mg/kg/injection, schedule: Q01DX009 (ip), vehicle: water) is reported as 100 % of control, the T/C (dose: 12.5 mg/kg/injection, schedule: Q01DX009 (ip), vehicle: water) is reported as 100 % of control and the T/C [12] is reported as 98 % of control. For the same molecule, the T/C [13] was 107 % of control and the T/C [14] was 117 % of control.

`COc1ccc(C2OC3=C(Nc4ccc(Cl)cc4N3)C2=O)c(OC)c1` (stereo not given) was tested, and the T/C (dose: 0.94 mg/kg/injection, schedule: Q01DX005 (ip), vehicle: Klucel (hydroxypropylcellulose) (HPC)) was 99 % of control, the T/C (dose: 1.88 mg/kg/injection, schedule: Q01DX005 (ip), vehicle: Klucel (hydroxypropylcellulose) (HPC)) was 91 % of control and the T/C (dose: 3.75 mg/kg/injection, schedule: Q01DX005 (ip), vehicle: Klucel (hydroxypropylcellulose) (HPC)) was 95 % of control. For the same molecule, the T/C (dose: 15.0 mg/kg/injection, schedule: Q01DX005 (ip), vehicle: Klucel (hydroxypropylcellulose) (HPC)) was 91 % of control, the T/C (dose: 30.0 mg/kg/injection, schedule: Q01DX005 (ip), vehicle: Klucel (hydroxypropylcellulose) (HPC)) was 92 % of control and the T/C [8] was 90 % of control and 93 % of control.
